From patent publication US12053480B2, “Methods and pharmaceutical compositions for treating peripheral demyelinating diseases” (INSERM (INSTITUT NATIONAL DE LA SANTE ET DE LA RECHERCHE …, priority 2015, dated 2024)

How the values were obtained:
mSC mitochondria = experiment: Mitochondrial motility imaging (mito-dsRed2) in mSC of mouse sciatic nerve; format: in vivo; details: after nerve crush
Protocol: Mice were anesthetized with isoflurane inhalation and placed under a Stemi2000 microscope (Zeiss). Incision area was shaved and cleaned using betadine solution. After incision, the gluteus superficialis and biceps femoris muscles were separated to reveal the cavity traversed by the sciatic nerve. The nerve was lift out using spatula and a thin glass needle filled with viral solution (8 μl) was introduced into the nerve with a micromanipulator. This solution was injected over 30 min with short pressure pulses using a Picospritzer III (Parker Hannifin) coupled to a pulse generator. After injection, the nerve was replaced into the cavity, the muscles were readjusted, and the wound was closed using clips (for further details see Gonzalez et al., 2014^3).
(§1) TRO19622 drug (Tocris bioscience, Ref. 2906) was diluted in ethanol to 20 mM and then, the solution was diluted in sterile PBS to 20 μM. TRO19622 treatments were realized by 3 mg/kg intraperitoneal (IP) injections of 20 mM solution or by intra sciatic nerve injections of 2 μl of drug solution 2 μM using a Hamilton syringe or a glass needle in sterile conditions 30 minutes before multiphoton image acquisitions or immunohistochemistry and demyelination studies respectively. Methyl jasmonate drug (Sigma-Aldrich, Ref. 392707) was diluted in 1 ml of sterile PBS to 1M or 3M. Methyl jasmonate treatments were realized by intra sciatic nerve injections of 1 μl of drug solution using a glass needle and micromanipulator in sterile conditions following the same virus injections procedure (see in vivo virus injection in the sciatic nerve method) two hours before multiphoton image acquisition. […] All drug concentrations were previously evaluated by Bordet et al, 2007^5; Goldin et al, 2008^6; Sharov et al, 2007^7.
First injected mouse was anesthetized with 5% of isoflurane a 1.5% of oxygen into the anesthesia system box (World Precision Instruments, Ref. EZ-B800) for 5 minutes. Anesthesia controls were realized^8. Then, mouse was placed in anesthesia mask and the incision area was shaved and cleaned with betadine and ethanol 70% solution. Incision was realized using a scalpel and the skin was retracted using forceps in order to expose the gluteus superficialis and bleeps femoris muscles. Next, the connective tissue that connects both muscles was cut and the sciatic nerve was gently lifted out using a spatula. A flexible bridge was slide below sciatic nerve and it was placed into a plastic first pool fixed to the bridge. Mouse was placed under the multiphoton microscope, the bridge was fixed using magnetic brackets to avoid physiological movement and mouse legs were fixed using clippers. Microscope dark box temperature is controlled to 37° C. during all time-lapse imaging. Finally, a second pool was fixed to the first pool using a drop of agarose low melting 3% (Promega, Ref. V2111) in Leibovitz's L15 medium (Gibco Life Technologies) and filled with deionized water to immerse the objectives 20× or 63× (Carl Zeiss Microscopy).
All time-lapse images were obtained with a multiphoton microscope Zeiss LSM 7 MP OPO. Mitochondria motility images were acquired by time-lapse recording of one image every five minutes during five hours at 920 nm. GCaMP2 and SypHer probe images were acquired by time-lapse recording of one image every fifteen minutes during five hours at 985 nm. Images were acquired to constant 1% of laser intensity to 100 msec of acquisition time with 512×512 resolution and 10 images of z-stack of 20 μm. […]

phospho-c-jun [1] = experiment: Immunohistochemistry of phospho-c-jun in mSC of CMT1A rats; format: in vivo, rat; details: compared to vehicle
Protocol: The dissected nerve was washed in L15 medium, fixed in Zamboni's fixative (Stefanini et al., 1967^4) for 10 min at room temperature, washed in PBS, and incubated in successive glycerol baths (15, 45, 60, 66% in PBS) for 18 to 24 h each before freezing at −20° C. The nerves were cut in small pieces in 66% glycerol and the perineurium sheet removed. Small bundles of fibers were teased in double-distilled water on Superfrost slides, dried overnight at room temperature, and the slides stored at −20° C. For immunostaining, the teased fibers were incubated for 1 h at room temperature in blocking solution (10% goat serum, 0.2% TritonX100, and 0.01% sodium azide in PBS). […]
While demyelinating diabetes peripheral neuropathy is a commonly acquired disease, demyelination is also the characteristic feature of a large number of inherited diseases called Charcot-Marie-Tooth diseases (CMT). […] Twelve weeks old CMT1A rats were daily treated with TRO19622 for 15 or 30 days and one day or two months after treatment, we analyzed MAPK demyelination pathways by western blot. […] Then we analyzed phospho-c-jun activation in mSC using immunohistochemistry. […] Next, we measured Schwann cell demyelination and g-ratio by toluidine blue staining on semi-thin sciatic nerve sections and on thin sections using electron microscopy.

[2] = cited from earlier work
phospho-c-jun [3] = experiment: Immunohistochemistry of nuclear phospho-c-jun in mSC after nerve crush or MJ; format: in vivo, mouse; details: immunohistochemistry; TRO19622 30 minutes prior crush
Protocol: The dissected nerve was washed in L15 medium, fixed in Zamboni's fixative (Stefanini et al., 1967^4) for 10 min at room temperature, washed in PBS, and incubated in successive glycerol baths (15, 45, 60, 66% in PBS) for 18 to 24 h each before freezing at −20° C. The nerves were cut in small pieces in 66% glycerol and the perineurium sheet removed. Small bundles of fibers were teased in double-distilled water on Superfrost slides, dried overnight at room temperature, and the slides stored at −20° C. For immunostaining, the teased fibers were incubated for 1 h at room temperature in blocking solution (10% goat serum, 0.2% TritonX100, and 0.01% sodium azide in PBS). Then, the samples were then incubated with anti-ECCD2 primary mouse antibody (1/100, BD biosciences, Ref. 610181), anti-phosphoS63-c-jun primary mouse antibody (1/200, BD Biosciences, Ref. 558036), anti-c-jun primary mouse antibody (1/200, BD Biosciences, Ref. 610326), anti-VDAC primary rabbit antibody (1/100, Cell Signaling, Ref. 4866) or/and MitoTracker Red (1/1000, Molecular Probes, Ref. M7515) in blocking solution overnight at 4° C. The next day, the samples were washed in PBS and incubated for 1 h at room temperature with secondary donkey antibodies coupled to Alexa488, Alexa 594 or Alexa647 (1/1600, Molecular probes) and TO-PRO-3 iodide (50 μM, Invitroge, Ref. T3605). Finally the samples were washed in PBS and mounted in Immu-mount (Thermo Scientific). Images were acquired at room temperature using a 20× or 40× objective, a Zeiss confocal microscope LSM710, and its associated software.
as §1
To go further we also selectively silenced VDAC1 in mSC and measured the expression level of nuclear phospho-c-jun by immunohistochemistry after nerve crush. […]

[4] = tested on: phospho-ERK1/2, phospho-p38, phospho-JNK and phospho-c-jun; experiment: Western blot of demyelination signaling pathways in sciatic nerve after crush or MJ; format: in vivo, mouse; details: western blot 4 and 12 hours after crush; treated before crush
Protocol: as §1

Q: With `CC(C)CCC[C@@H](C)[C@H]1CC[C@H]2[C@@H]3CCC4=C/C(=N\O)CC[C@]4(C)[C@H]3CC[C@]12C` [TRO19622, (NZ)—N-[(8S,9S,10R,13R,14S,17R)-10,13-dimethyl-17-[(2R)-6-methylheptan-2-yl]-1,2,6,7,8,9,11,12,14,15,16,17-dodecahydrocyclopenta[a]phenanthren-3-ylidene]hydroxylamine] as the molecule, how does the “changes induced by nerve crush in mitochondrial motility not abrogated” value (mSC mitochondria) read?
A: 20%

Q: What about the “phospho-c-jun amount in the mSC nucleus” value (phospho-c-jun [1]) of the same molecule?
A: strongly reduced

Q: What about the safety in humans [2] of the same molecule?
A: safe

Q: What about the “nuclear phospho-c-jun in mSC after nerve crush” value (phospho-c-jun [3]) of the same molecule?
A: strongly reduced

Q: And the “increase in phospho-ERK1/2, phospho-p38, phospho-JNK and phospho-c-jun after nerve crush” value [4]?
A: strongly reduced
